Molecular target: T1, human WDR5 (residues 24–334) (Homo sapiens, UniProt P61964)
T1 construct: human WDR5 seven tandem WD-40 domain (residues 24–334); GST (N, cleaved yes); made in house; host or cells: Escherichia coli BL21 (DE3)
Experiment: ITC assay of Kif2A peptides titrated into WDR5
Conditions: wild-type WDR5 0.05 mM, peptide approx. 1 mM, 20 mM Tris-HCl, 200 mM NaCl, pH 7.5, 20°C, mean±SD of a minimum of two experiments, N.D. = not detectable binding
Text: The DNA fragment encoding the human WDR5 seven tandem WD-40 domain (residues 24–334) was amplified via PCR from the human brain and bone marrow cDNA library and cloned and inserted into the pGEX-4T1 vector, which was modified to include an N-terminal GST tag and a TEV cleavage site (ENLYFQ/GSHM) (where ‘/’ denotes the cleavage site). The Y191F variant of WDR5 was generated using a MutanBEST kit (TaKaRa, Dalian, China) and verified via DNA sequencing. Proteins were expressed in Escherichia coli BL21 (DE3) cells (Novagen, Darmstadt, Germany) cultured in Luria-Bertani medium at 37°C. Protein expression was induced with 0.2 mM isopropyl β-D-1-thiogalactopyranoside (IPTG) once the optical density at 600 nm (OD600) reached 0.8, and the cultures were shifted to 16°C for incubation for 18 h. The cells were harvested by centrifugation and resuspended in Buffer A (20 mM Tris-HCl, 1 M NaCl, pH 8.0) supplemented with DNase I (10 U) and cOmplete, EDTA-free Protease Inhibitor Cocktail (1 tablet dissolved in 1 mL of sterile water), after which they were lysed by ultrasonication. […]
ITC assays were performed on a Microcal PEAQ-ITC instrument (Malvern Panalytical, Westborough, USA) at 20°C as previously described. Protein concentrations were quantified by measuring the absorbance at 280 nm and diluted to 0.05 mM with Buffer E. Peptides were prepared at approximately 1 mM in the same buffer. […]

Sequence: GSAAARPSQ [Kif2A ^R117A, Kif2A 114–122 peptide with R117A mutation, …]
- KD, dissociation constant: completely abolished binding
